Measurements as given in patent publication US20090186110A1, “GUAVA EXTRACT” (priority 2005, published 2009).

Target: T1, DP-IV (Homo sapiens, UniProt P27487)
T1 construct: DP-IV also exists as a soluble circulating form in plasma; from tissue; host or cells: human plasma
Experiment: DP-IV activity colorimetric assay (Gly-Pro-4-NA substrate, human plasma)
Assay type: biochemical
Method: DP-IV activity was measured by a colorimetric assay.
DP-IV activity is expressed as the linear change in optical density over 20 min (Δ Abs/min).

T1 sequence (P27487 39-766 limits assumed): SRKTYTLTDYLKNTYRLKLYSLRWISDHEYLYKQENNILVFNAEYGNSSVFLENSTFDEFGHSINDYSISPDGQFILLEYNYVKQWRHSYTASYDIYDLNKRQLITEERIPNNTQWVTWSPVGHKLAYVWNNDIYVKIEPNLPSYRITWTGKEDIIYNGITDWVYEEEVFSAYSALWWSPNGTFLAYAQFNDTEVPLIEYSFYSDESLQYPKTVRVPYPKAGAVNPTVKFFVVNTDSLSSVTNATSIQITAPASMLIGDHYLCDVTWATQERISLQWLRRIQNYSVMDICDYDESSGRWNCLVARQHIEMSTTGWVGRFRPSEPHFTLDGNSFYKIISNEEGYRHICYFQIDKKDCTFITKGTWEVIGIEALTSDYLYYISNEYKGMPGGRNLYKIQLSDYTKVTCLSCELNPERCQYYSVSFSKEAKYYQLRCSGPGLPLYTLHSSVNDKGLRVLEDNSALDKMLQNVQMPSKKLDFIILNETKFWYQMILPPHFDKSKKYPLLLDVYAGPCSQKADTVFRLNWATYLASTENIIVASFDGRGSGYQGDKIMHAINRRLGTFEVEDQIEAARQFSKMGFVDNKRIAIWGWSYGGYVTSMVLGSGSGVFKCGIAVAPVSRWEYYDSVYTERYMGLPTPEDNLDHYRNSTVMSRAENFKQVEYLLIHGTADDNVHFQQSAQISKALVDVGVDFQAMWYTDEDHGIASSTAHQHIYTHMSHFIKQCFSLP

concentration that yielded a DP-IV inhibition of around 50% (guaijaverin in HEPES buffer, tested 70-280 μg/mL): 140-210 μg/mL test assay
Structure (SMILES): O=c1c(O[C@@H]2OC[C@H](O)[C@H](O)[C@H]2O)c(-c2ccc(O)c(O)c2)oc2cc(O)cc(O)c12 [guaijaverin]
DP-IV inhibition (result in words): clear, dose dependent inhibition of DP-IV
